What is called IC50 is the concentration that gives 50% inhibition. High values mean lower potency, low ones higher potency.

The subject of the test is THP-1. In words: Cytotoxicity was determined against THP-1 cell line as reduction in cell number. The following applies: Homo sapiens. The class given is functional, cell-based.
`C[N+](C)(C)Cc1cc(-c2c3nc(c(-c4ccccc4)c4ccc([nH]4)c(-c4ccc(O)c(C[N+](C)(C)C)c4)c4ccc([nH]4)c(-c4ccccc4)c4nc2C=C4)C=C3)ccc1O` showed an IC50 of 61.8 nM.
`C[N+](C)(C)Cc1cc(-c2c3nc(cc4ccc([nH]4)c(-c4ccc(O)c(C[N+](C)(C)C)c4)c4nc(cc5ccc2[nH]5)C=C4)C=C3)ccc1O` gave an IC50 of 5.6 nM.
With `CCc1c2nc(c(-c3ccc(O)c(C[N+](C)(C)C)c3)c3ccc([nH]3)c(CC)c3ccc([nH]3)c(-c3ccc(O)c(C[N+](C)(C)C)c3)c3nc1C=C3)C=C2` the figure was 88.4 nM; with `CCc1c2nc(c(-c3ccc(OC)c(C[N+](C)(C)C)c3)c3ccc([nH]3)c(CC)c3ccc([nH]3)c(-c3ccc(OC)c(C[N+](C)(C)C)c3)c3nc1C=C3)C=C2`, 1400 nM.
